Results reported in article PMC9960930, “Saponin and Fatty Acid Profiling of the Sea Cucumber Holothuria atra, α-Glucosidase Inhibitory Activity and the Identification of a Novel Triterpene Glycoside” (Nutrients, 2023).
Converted amounts (≈) assume the structure as drawn. Read-outs that look alike come from different tables or passages of the source.

Assays:
[1] = solubility in NMR solvent; conditions: noticed when preparing the compounds for NMR analysis
[2] = target: α-glucosidase from Saccharomyces cerevisiae; test: α-glucosidase inhibition assay (PNPG substrate); type: biochemical; conditions: commercial pure fatty acids; acarbose positive control; three repeats; read-out: IC50 against α-glucosidase
Experimental: The reference standard for the GC-MS analysis was a Supelco 37 Component FAME mix from Sigma Aldrich (Sigma-Aldrich Chemie GmbH, Steinheim, Germany). Pure fatty acids, including palmitoleic acid (≥98.5%), arachidonic acid, and eicosapentaenoic acid (≥99%), were purchased from Sigma Aldrich (Sigma-Aldrich Chemie GmbH, Steinheim, Germany).
The α-glucosidase inhibition was assessed using the method described by Su et al. (2013 and Trinh et al. (2016), with a slight modification. In total, 100 μL of the α-glucosidase enzyme solution from Saccharomyces cerevisiae (0.2 U/mL in a 0.1 M phosphate buffer at pH 6.8) and 50 μL of the sample dissolved in the phosphate buffer containing 6% DMSO 0.25–20 mg/mL), and were incubated in a transparent 96-well plate at 37 °C for 15 min. Next, 50 μL of PNPG (5 mM in a 0.1 m phosphate buffer) was added. The PNPG was hydrolyzed to release p-nitrophenyl (PNP), and this process was monitored at 405 nm for 30 min at 37 °C, with a BioTek Eon microplate reader (Winooski, VT, USA)) using the Gen5 version 2.06 software. […] The IC50 values were calculated with GraphPad Prism 6 software (GraphPad Software Inc, La Jolla, CA, USA). The IC50 values were subjected to one-way analysis of variance (ANOVA) and the Tukey post hoc test, using GraphPad Prism 6 software to assess any significant differences among the treatments. P-values < 0.05 were considered significant.

α-glucosidase [3] = target: α-glucosidase; parameters: method as in PMID 23355366; conditions: read-out: IC50 against α-glucosidase; cited from earlier work
α-glucosidase [4] = target: α-glucosidase; parameters: method as in PMID 22416705; conditions: cited from earlier work; for IC50 against α-glucosidase: fatty acids from body wall of S. japonicus; for α-glucosidase inhibitory activity: purified from body wall of S. japonicus
α-glucosidase [5] = target: α-glucosidase; parameters: method as in PMID 25735900; conditions: cited from earlier work; for IC50: purified from S. japonicas, read-out: IC50 against α-glucosidase; for α-glucosidase inhibitory activity: purified from internal organs of S. japonicus
diabetic mice = tested on: diabetic mice; parameters: method as in PMID 26932154; conditions: treatment of diabetic mice; cited from earlier work
α-glucosidase [6] = tested on: α-glucosidase; parameters: method as in PMID 26932154; conditions: cited from earlier work

For `CC1OC(OC2C(OC3CCC4(C)C5=CC(O)C67C(=O)OC(C)(C8CCC(C)(C)O8)C6(O)CCC7(C)C5CCC4C3(C)C)OCC(O)C2O)C(O)C(O)C1O` (stereo not drawn) [compound 1, desholothurin B], which “solubility in methanol-d4” value [1] is on record?
Its value is “soluble”.

What does the source list for `CCCCC/C=C\C/C=C\C/C=C\C/C=C\CCCC(=O)O` [Arachidonic acid]?
IC50 [2]: 596 ± 44 µM; IC50 (α-glucosidase [3]): 211 ± 2 µM

With `CCCCCCC/C=C\C/C=C\CCCCCC(=O)O` [7(Z),10(Z)-octadecadienoic acid] as the compound, how does the “IC50 against α-glucosidase” value (α-glucosidase [4]) read?
Its value is 0.49 ± 0.05 µg/mL (≈ 1.75 µM).

And the α-glucosidase inhibitory activity (α-glucosidase [4])?
The α-glucosidase inhibitory activity was “strong”.

Which IC50 (α-glucosidase [5]) does the source give for `CCCCCC/C=C\CCCCCCCC(=O)OCC(O)COC(=O)CCCCCCC/C=C\CCCCCC` [1,3-Dipalmitolein] here?
Its IC50 is 4.45 µM.

What about the α-glucosidase inhibitory activity (α-glucosidase [5]) of the same compound?
The α-glucosidase inhibitory activity was “strong”.

With `CCCCCC/C=C\CCCCCCCC(=O)O` [Palmitoleic acid] as the compound, how does the IC50 [2] read?
Its IC50 is 320 ± 32 µM.

What about the IC50 (α-glucosidase [3]) of the same compound?
Its IC50 is 265 ± 2 µM.

What does the source list for `CCCCCCCCCC/C=C\CCCCCC(=O)O` [7(Z)-octadecenoic acid]?
IC50 against α-glucosidase (α-glucosidase [4]): 0.51 ± 0.02 µg/mL (≈ 1.81 µM); α-glucosidase inhibitory activity (α-glucosidase [4]): strong

Which results are given for `CCCCCCCC/C=C\CCCCCCCC(=O)O` [cis-9-octadecenoic acid]?
IC50 (α-glucosidase [5]): 14.9 µM; α-glucosidase inhibitory activity (α-glucosidase [5]): strong

For `CO[C@@H]1[C@@H](O)[C@H](O[C@@H]2[C@@H](O)[C@H](O[C@H]3[C@H](O)[C@@H](O)[C@H](O[C@H]4[C@H](O[C@H]5CC[C@]6(C)C7=C[C@H](O)[C@@]89C(=O)O[C@@](C)(C%10CCC(C)(C)O%10)[C@@]8(O)CC[C@@]9(C)[C@@H]7CC[C@H]6C5(C)C)OC[C@@H](OS(=O)(=O)O)[C@@H]4O)O[C@@H]3C)O[C@H](CO)[C@H]2O)O[C@H](CO)[C@H]1O` (stereo partly drawn) [holothurin A], which “postprandial blood glucose levels” value (diabetic mice) is on record?
The value was “suppressed postprandial blood glucose levels”.

And the α-glucosidase activity (α-glucosidase [6])?
Its α-glucosidase activity is “inhibited”.

Which “postprandial blood glucose levels” value (diabetic mice) does the source give for `COC1C(O)C(CO)OC(OC2C(O)C(CO)OC(OC3C(C)OC(OC4C(OC5CCC6(C)C7=CC(O)C89C(=O)OC(C)(CCCC(C)C)C8(O)CCC9(C)C7CCC6C5(C)C)OCC(OS(=O)(=O)O)C4O)C(O)C3O)C2O)C1O.[Na+]` (stereo not drawn) [echinoside A] here?
The value was “suppressed postprandial blood glucose levels”.

What about the α-glucosidase activity (α-glucosidase [6]) of the same compound?
The α-glucosidase activity was “inhibited”.

With `CC/C=C\C/C=C\C/C=C\C/C=C\C/C=C\CCCC(=O)O` [Eicosapentaenoic acid] as the compound, how does the IC50 [2] read?
Its IC50 is 541 ± 39 µM.
